This passage reports IC50 results from patent US12492184B2, “Heteroaryl compounds, preparation methods and uses thereof” (InventisBio Co., Ltd., priority 2020, dated 2025).

Structures are written as SMILES.

For orientation: IC50 means the midpoint of a concentration-inhibition curve.

The test system of one test is HEK-Blue IL23 Reporter. As to the kind of experiment: HEK-Blue IL-23 STAT3 Reporter Assay. Conditions: HEK-Blue IL23 cells stimulated with IL-23 overnight; SEAP read with QUANTI-Blue at OD655. Type of test: cell-based, human. The method, then: HEK-Blue IL23 cells (InvivoGen catalog #HKB-IL23) are designed for the detection of bioactive IL-23 by monitoring the activation of the STAT3 pathway. They were generated by stably introducing the genes for the human IL-23 receptor, STAT3, and the SEAP (secreted embryonic alkaline phosphatase) reporter gene into human HEK293 cell line.
Briefly, around 50,000 cells in DMEM medium supplemented with 10% heat inactivated FBS (˜180 ul) were seeded into each well and incubate for 48 hours at 37° C. with 5% CO2 in air. On day 3, one microliter of compound and 20 ul IL-23 were transferred to the assay plate respectively. The plate was left in the 37° C. incubator overnight. Two microliter of cell supernatant was transferred to a 384-well plate, and 18 ul of resuspended QUANTI-Blue solution was added to each well. SLAP levels were determined using Tecan Spark at OD655.
Cells with no IL23 added were used as Low control. Cells stimulated with IL23 were used as High control. Inhibition rate was calculated with the formula of % inhibition=100*(High control−Treated Well)/(High Control−Low control). IL-23 reporter assay inhibition IC50 was calculated with the equation of Y=Bottom+(Top-Bottom)/(1+10^((Log IC50−X)*HillSlope)).
With `[2H]C([2H])([2H])NC(=O)c1nnc(NC(=O)[C@H]2CC23CC3)cc1Nc1ncccc1S1(=O)=NCCC1` (single isomer, unassigned) [Compound 94], the IC50 was determined as 137 nM. The same measure, in the same setting: to `[2H]C([2H])([2H])NC(=O)c1nnc(NC(=O)[C@H]2CC23CC3)cc1Nc1ncccc1S(C)(=O)=NC` (single isomer, unassigned) [Compound 97] belongs 1.4 nM.

Still in this test, the particulars now being: Homo sapiens, HEK-Blue IL-23, HEK-Blue IL23 cells stimulated with IL-23 overnight; SEAP read with QUANTI-Blue at OD655.
On to `[2H]C([2H])([2H])NC(=O)c1nnc(NC(=O)C2CC2)cc1Nc1ncc(OC(F)(F)F)cc1S(C)(=O)=O` (single isomer, unassigned) [Compound 53], for which the IC50 is 1.9 nM. `[2H]C([2H])([2H])NC(=O)c1nnc(NC(=O)C2CC2)cc1Nc1ncc(SC(F)(F)F)cc1S(C)(=O)=O` (single isomer, unassigned) [Compound 54] gave a concentration for half-maximal inhibition (IC50) of 1.5 nM. On the same count and under the same terms, the value for `[2H]C([2H])([2H])NC(=O)c1cnc(NC(=O)C2CC2)cc1Nc1ncc(F)cc1S(C)(=O)=O` (single isomer, unassigned) [Compound 55] was 1.5 nM; that for `[2H]C([2H])([2H])NC(=O)c1nnc(NC(=O)C2CC2)cc1Nc1ncc(C(F)F)cc1S(C)(=O)=O` (single isomer, unassigned) [Compound 58] was 2.7 nM. Same read-out and setting: to `[2H]C([2H])([2H])NC(=O)c1nnc(NC(=O)C2CC2)cc1Nc1ncc(OCCOC)cc1S(C)(=O)=O` (single isomer, unassigned) [Compound 59] belongs 0.4 nM; to `[2H]C([2H])([2H])NC(=O)c1nnc(NC(=O)C2CC2)cc1Nc1ncc(OC(F)F)cc1S(C)(=O)=O` (single isomer, unassigned) [Compound 60], 1.7 nM; to `[2H]C([2H])([2H])NC(=O)c1nnc(NC(=O)C2CC23CC3)cc1Nc1ncc(OC)cc1S(C)(=O)=O` (stereo not shown) [Compound 1], 3.5 nM.

For `[2H]C([2H])([2H])NC(=O)c1nnc(NC(=O)[C@@H]2CC23CC3)cc1Nc1ncc(OC)cc1S(C)(=O)=O` [Compound 2], half-maximal inhibition (IC50) required 4.3 nM. Still for that read-out and setting: the value for `[2H]C([2H])([2H])NC(=O)c1nnc(NC(=O)C2CC23CC3)cc1Nc1ncc(F)cc1S(C)(=O)=O` (stereo not shown) [Compound 3] was 7.1 nM; that for `[2H]C([2H])([2H])NC(=O)c1nnc(NC(=O)C2CC23CC3)cc1Nc1nccc(C)c1S(C)(=O)=O` (stereo not shown) [Compound 4] was 39.3 nM. Same read-out and setting: the value for `[2H]C([2H])([2H])NC(=O)c1nnc(NC(=O)[C@H]2CC23CC3)cc1Nc1ncc(C2CC2)cc1S(C)(=O)=O` [Compound 5] was 1.7 nM. Still for that read-out and setting: to `[2H]C([2H])([2H])NC(=O)c1nnc(NC(=O)C2CC23CC3)cc1Nc1nccc(CO)c1S(C)(=O)=O` (stereo not shown) [Compound 6] belongs 18.8 nM; to `[2H]C([2H])([2H])NC(=O)c1nnc(NC(=O)C2CC23CC3)cc1Nc1ncccc1S(C)(=N)=O` (stereo not shown) [Compound 7], 14.4 nM. `[2H]C([2H])([2H])NC(=O)c1nnc(NC(=O)C2CC23CC3)cc1Nc1nccc2c1S(C)(=O)=NC2` (stereo not shown) [Compound 8] displayed an IC50 of 2.6 nM. The compound `[2H]C([2H])([2H])NC(=O)c1nnc(NC(=O)[C@H]2CC23CC3)cc1Nc1ccc(Cl)cc1S(C)(=O)=O` [Compound 9] gave an IC50 of 51 nM.

As for `[2H]C([2H])([2H])NC(=O)c1nnc(NC(=O)[C@H]2CC23CC3)cc1Nc1cc(Cl)ccc1S(C)(=O)=O` [Compound 10], the IC50 was found to be 1820 nM. Same read-out and setting: to `[2H]C([2H])([2H])NC(=O)c1nnc(NC(=O)C2CC23CC3)nc1Nc1ccccc1S(C)(=O)=O` (stereo not shown) [Compound 11] belongs 121 nM; to `CS(=O)(=O)c1cccnc1Nc1cc(NC(=O)C2CC23CC3)ncc1C(=O)C1CC1` (stereo not shown) [Compound 12], 140 nM. `[2H]C([2H])([2H])NC(=O)c1nnc(NC(=O)[C@H]2CC23CC3)cc1Nc1ccncc1S(C)(=O)=O` [Compound 13] displayed an IC50 of 346 nM. Same read-out and setting: the value for `[2H]C([2H])([2H])NC(=O)c1nnc(NC(=O)C2CC2)cc1Nc1ncc(OC)cc1S(C)(=O)=O` [Compound 14] was 1.3 nM.

For `[2H]C([2H])([2H])NC(=O)c1nnc(NC(=O)C2CCC2)cc1Nc1ncc(OC)cc1S(C)(=O)=O` [Compound 15], 9.1 nM corresponded to half-maximal inhibition (IC50). The same measure, in the same setting: the value for `[2H]C([2H])([2H])NC(=O)c1nnc(NC(=O)C23CC(C2)C3)cc1Nc1ncc(OC)cc1S(C)(=O)=O` [Compound 16] was 182 nM. `[2H]C([2H])([2H])NC(=O)c1nnc(NC(=O)C2CCCC2)cc1Nc1ncc(OC)cc1S(C)(=O)=O` [Compound 17] showed an IC50 of 13.8 nM.

The compound `[2H]C([2H])([2H])NC(=O)c1nnc(NC(=O)C(C)C)cc1Nc1ncc(OC)cc1S(C)(=O)=O` [Compound 18] had an IC50 of 38.9 nM.

On to `[2H]C([2H])([2H])NC(=O)c1nnc(NC(=O)OC)cc1Nc1ncc(OC)cc1S(C)(=O)=O` [Compound 19], for which 20.9 nM corresponded to half-maximal inhibition (IC50).

In the case of `[2H]C([2H])([2H])NC(=O)c1nnc(NC23CC(C2)C3)cc1Nc1ncccc1S(C)(=O)=O` [Compound 20], the IC50 worked out at 195 nM. Consider `[2H]C([2H])([2H])NC(=O)c1nnc(NC(=O)NC2CC2)cc1Nc1ncccc1S(C)(=O)=O` [Compound 21], for which the IC50 is 8.9 nM.

Turning to `[2H]C([2H])([2H])NC(=O)c1nnc(NC2CC2)cc1Nc1ncccc1S(C)(=O)=O` [Compound 22], the midpoint of inhibition, the IC50, lay at 106 nM.

Take `COC(=O)Nc1cc(Nc2ncccc2S(C)(=O)=O)c(C(N)=O)nn1` [Compound 23]: the 50% inhibitory concentration (IC50) turned out to be 58.5 nM.

Consider `[2H]C([2H])([2H])NC(=O)c1nnc(NC(=O)OC)cc1Nc1ncccc1S(C)(=O)=O` [Compound 24], for which the IC50 stood at 25.4 nM. Consider `[2H]C([2H])([2H])NC(=O)c1nnc(-c2cc(C)n[nH]2)cc1Nc1ncccc1S(C)(=O)=O` [Compound 25], for which the IC50 is at least 1000 nM. Same read-out and setting: the value for `[2H]C([2H])([2H])NC(=O)c1nnc(NC(=O)[C@H]2CC23CC3)cc1Nc1ncc(OC)cc1S(C)(=O)=O` [Compound 26] was 2.3 nM.

Compound `[2H]C([2H])([2H])NC(=O)c1nnc(NC(=O)C2CC2(C)C)cc1Nc1ncc(OC)cc1S(C)(=O)=O` (stereo not shown) [Compound 27] gave an IC50 of 24.2 nM. Compound `[2H]C([2H])([2H])NC(=O)c1nnc(NC(=O)C2(C)CC2)cc1Nc1ncc(OC)cc1S(C)(=O)=O` [Compound 28] came in with an IC50 of 35.1 nM. Take `[2H]C([2H])([2H])NC(=O)c1nnc(NC(=O)c2ccc(F)cc2)cc1Nc1ncc(OC)cc1S(C)(=O)=O` [Compound 29]: the midpoint of inhibition, the IC50, lay at 350 nM. Still for that read-out and setting: the value for `[2H]C([2H])([2H])NC(=O)c1nnc(NC(=O)c2ccn(C)n2)cc1Nc1ncc(OC)cc1S(C)(=O)=O` [Compound 30] was 440 nM; that for `[2H]C([2H])([2H])NC(=O)c1nnc(NC(=O)[C@H]2CC23CC3)cc1Nc1ncc(C(F)(F)F)cc1S(C)(=O)=O` [Compound 32] was 5.3 nM.

On to `[2H]C([2H])([2H])NC(=O)c1nnc(NC(=O)[C@H]2CC23CC3)cc1Nc1ncc(C)cc1S(C)(=O)=O` [Compound 33], for which the IC50 worked out at 0.9 nM.

With `[2H]C([2H])([2H])NC(=O)c1nnc(NC(=O)[C@H]2CC23CC3)cc1Nc1nccc(OC)c1S(C)(=O)=O` [Compound 34], the IC50 turned out to be 548 nM. `[2H]C([2H])([2H])NC(=O)c1nnc(NC(=O)C2(F)CC2)cc1Nc1ncc(OC)cc1S(C)(=O)=O` [Compound 35]: the IC50 is 11 nM. The same measure, in the same setting: the value for `[2H]C([2H])([2H])NC(=O)c1nnc(NC(=O)C2CC(OC)C2)cc1Nc1ncc(OC)cc1S(C)(=O)=O` (stereo not shown) [Compound 36] was 5.6 nM.
